Laboratory results from ChEMBL document CHEMBL1201862, “PubChem BioAssay data set” (2004).
Active and inactive are the calls of the source.

Experiments:
[1] = target: Potassium voltage-gated channel subfamily KQT member 2 (Rattus norvegicus, UniProt O88943, W236L); experiment: KCNQ2 channel potentiators, dose response, mechanism study for KCNQ2 potentiator project, cell-based, automated electrophysiology (AID 2603); assay type: functional
[2] = target: T1, Long-chain-fatty-acid--AMP ligase FadD28 (Mycobacterium tuberculosis, UniProt P9WQ59); experiment: Fluorescence polarization aasay to screen for inhibitors that compete for the binding of FadD28 to a bisubstrate Measured in Biochemical System Using Plate Reader - 2147-01_Inhibitor_Dose_CherryPick_Activity.; assay type: functional, Mycobacterium tuberculosis H37Rv
T1 sequence (P9WQ59 whole entry): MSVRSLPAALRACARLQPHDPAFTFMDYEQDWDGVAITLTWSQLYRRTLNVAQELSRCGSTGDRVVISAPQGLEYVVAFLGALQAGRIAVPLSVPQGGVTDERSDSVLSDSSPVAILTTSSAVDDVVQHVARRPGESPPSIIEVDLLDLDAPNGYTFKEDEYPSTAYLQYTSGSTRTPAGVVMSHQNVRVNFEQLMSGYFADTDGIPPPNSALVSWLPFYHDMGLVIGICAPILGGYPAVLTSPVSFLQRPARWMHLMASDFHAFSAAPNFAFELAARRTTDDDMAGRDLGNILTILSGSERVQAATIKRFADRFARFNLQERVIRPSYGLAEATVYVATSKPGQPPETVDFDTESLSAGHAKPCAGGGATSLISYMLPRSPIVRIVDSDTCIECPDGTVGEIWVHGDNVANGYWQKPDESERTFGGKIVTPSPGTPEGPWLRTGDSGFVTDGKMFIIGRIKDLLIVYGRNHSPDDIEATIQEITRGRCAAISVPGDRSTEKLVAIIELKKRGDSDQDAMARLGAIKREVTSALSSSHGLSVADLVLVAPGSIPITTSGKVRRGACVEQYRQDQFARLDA

[3] = A High Throughput Confirmatory Assay used to Identify Novel Compounds that Inhibit Mycobacterium Tuberculosis in the absence of Glycerol.; assay type: functional
[4] = microbe, parasite or virus in culture; assay type: functional; conditions: Mycobacterium tuberculosis
[5] = HEp-2 cell cytotoxicity, dose response, cytotoxicity control for RSV inhibitor project, HTS (AID 2410); assay type: functional; conditions: human respiratory syncytial virus
Vero = experiment: West Nile virus antiviral activity, cell-based, CPE readout (AID 1621); assay type: functional; conditions: Chlorocebus sabaeus
[6] = cytotoxicity in HEK-293T cells, dose response, cytotoxicity control for TCR NF-kB inhibitor project, luminescence, T-cell screen hits (AID 489026); assay type: functional, cell-based;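 also: cells exposed to compound about 14 hours before the viability readout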
[7] = target: Protein-tyrosine kinase 2-beta (Homo sapiens, UniProt Q14289);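 also: potency of inhibitors of PYK2 kinase phosphorylation of poly-GT substrate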
Danio rerio = experiment: In Vivo Angiogenesis Dose-Response Confirmation. [Related pubchem assays: 732 (Assay preceding this confirmatory assay.)]; assay type: functional, organism-based
[8] = target: Transitional endoplasmic reticulum ATPase (Homo sapiens, UniProt P55072, C522A); experiment: Luminescence counterscreen assay for p97 inhibitors: dose response biochemical high throughput screening assay to identify inhibitors of the C522A mutant p97 ATPase: synthesized compounds. [Related pubchem assays: 1481, 1517, 1551 ]
[9] = target: Transitional endoplasmic reticulum ATPase (Homo sapiens, UniProt P55072); experiment: Luminescence dose response biochemical high throughput screening assay for inhibitors of the p97 ATPase: synthesized compounds. [Related pubchem assays: 1481, 1517 ]
Chain of Transitional endoplasmic reticulum ATPase (Homo sapiens, UniProt P55072) (P55072 whole entry): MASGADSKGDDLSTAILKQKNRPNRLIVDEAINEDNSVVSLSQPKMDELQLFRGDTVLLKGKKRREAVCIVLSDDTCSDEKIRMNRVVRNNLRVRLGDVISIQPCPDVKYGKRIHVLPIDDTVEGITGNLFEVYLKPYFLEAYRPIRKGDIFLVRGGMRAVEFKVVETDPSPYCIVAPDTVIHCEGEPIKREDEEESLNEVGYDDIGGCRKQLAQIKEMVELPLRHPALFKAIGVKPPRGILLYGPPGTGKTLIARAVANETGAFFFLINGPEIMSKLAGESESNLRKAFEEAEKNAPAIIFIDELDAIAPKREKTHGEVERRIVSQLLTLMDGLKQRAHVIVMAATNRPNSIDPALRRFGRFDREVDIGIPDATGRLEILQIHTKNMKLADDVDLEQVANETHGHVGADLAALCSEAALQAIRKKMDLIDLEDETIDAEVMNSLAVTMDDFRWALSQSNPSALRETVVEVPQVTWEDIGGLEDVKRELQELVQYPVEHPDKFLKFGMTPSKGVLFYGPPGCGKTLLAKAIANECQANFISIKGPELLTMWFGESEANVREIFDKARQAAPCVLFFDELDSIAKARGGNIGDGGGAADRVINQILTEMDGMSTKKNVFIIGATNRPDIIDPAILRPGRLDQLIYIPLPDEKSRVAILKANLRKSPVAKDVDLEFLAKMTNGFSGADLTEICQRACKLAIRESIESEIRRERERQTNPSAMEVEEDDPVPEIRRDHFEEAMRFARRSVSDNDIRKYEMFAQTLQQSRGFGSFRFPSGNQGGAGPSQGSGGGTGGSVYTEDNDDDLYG

Chain of Potassium voltage-gated channel subfamily KQT member 2 (O88943 whole entry W236L): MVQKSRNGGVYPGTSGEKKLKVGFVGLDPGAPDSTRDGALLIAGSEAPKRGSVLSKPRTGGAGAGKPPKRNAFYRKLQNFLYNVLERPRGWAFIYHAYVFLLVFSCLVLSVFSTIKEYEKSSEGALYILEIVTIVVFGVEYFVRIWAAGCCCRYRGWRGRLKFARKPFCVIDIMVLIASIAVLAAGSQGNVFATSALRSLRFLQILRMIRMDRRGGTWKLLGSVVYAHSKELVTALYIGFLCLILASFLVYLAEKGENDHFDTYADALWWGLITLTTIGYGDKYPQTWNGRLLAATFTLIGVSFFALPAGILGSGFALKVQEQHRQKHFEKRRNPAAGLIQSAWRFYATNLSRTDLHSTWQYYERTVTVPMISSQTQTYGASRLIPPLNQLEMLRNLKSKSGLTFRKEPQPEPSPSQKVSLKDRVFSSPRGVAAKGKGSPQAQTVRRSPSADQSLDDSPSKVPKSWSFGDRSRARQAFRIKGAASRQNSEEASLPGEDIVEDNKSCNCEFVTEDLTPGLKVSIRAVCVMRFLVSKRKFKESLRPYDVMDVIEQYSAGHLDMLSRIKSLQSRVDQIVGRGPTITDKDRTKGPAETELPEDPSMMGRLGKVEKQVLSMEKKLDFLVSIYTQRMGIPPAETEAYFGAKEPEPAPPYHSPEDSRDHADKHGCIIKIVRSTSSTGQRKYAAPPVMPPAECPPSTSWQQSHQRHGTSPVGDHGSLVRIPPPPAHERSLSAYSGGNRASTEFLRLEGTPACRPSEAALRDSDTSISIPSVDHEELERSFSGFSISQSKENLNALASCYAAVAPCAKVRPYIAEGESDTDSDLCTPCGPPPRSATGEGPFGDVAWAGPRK
Chain of Protein-tyrosine kinase 2-beta (Q14289 whole entry): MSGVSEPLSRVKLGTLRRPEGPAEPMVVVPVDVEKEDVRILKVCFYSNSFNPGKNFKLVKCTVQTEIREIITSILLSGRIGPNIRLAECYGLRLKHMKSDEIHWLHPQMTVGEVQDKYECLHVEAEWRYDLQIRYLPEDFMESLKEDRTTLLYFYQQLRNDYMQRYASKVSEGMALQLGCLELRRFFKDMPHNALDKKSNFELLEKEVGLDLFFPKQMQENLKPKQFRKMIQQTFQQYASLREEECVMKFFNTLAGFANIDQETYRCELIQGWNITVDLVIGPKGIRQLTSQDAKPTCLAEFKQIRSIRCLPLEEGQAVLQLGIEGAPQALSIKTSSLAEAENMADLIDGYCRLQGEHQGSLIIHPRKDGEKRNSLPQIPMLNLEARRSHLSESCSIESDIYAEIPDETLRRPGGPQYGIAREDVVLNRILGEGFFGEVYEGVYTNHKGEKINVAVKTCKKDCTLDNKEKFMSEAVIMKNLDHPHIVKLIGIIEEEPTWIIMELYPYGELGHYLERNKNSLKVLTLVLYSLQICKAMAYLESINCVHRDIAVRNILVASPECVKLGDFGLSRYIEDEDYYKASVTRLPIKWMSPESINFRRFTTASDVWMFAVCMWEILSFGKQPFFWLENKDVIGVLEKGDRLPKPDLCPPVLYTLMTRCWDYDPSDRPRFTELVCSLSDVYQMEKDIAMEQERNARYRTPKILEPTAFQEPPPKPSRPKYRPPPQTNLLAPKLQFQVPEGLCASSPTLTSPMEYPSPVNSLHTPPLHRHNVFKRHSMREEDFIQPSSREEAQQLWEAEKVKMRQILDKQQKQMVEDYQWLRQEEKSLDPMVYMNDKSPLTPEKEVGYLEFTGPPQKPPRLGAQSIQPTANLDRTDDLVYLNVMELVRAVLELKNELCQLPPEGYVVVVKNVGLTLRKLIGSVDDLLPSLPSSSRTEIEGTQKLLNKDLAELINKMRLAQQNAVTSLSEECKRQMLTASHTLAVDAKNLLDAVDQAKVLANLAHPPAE
Chain of Transitional endoplasmic reticulum ATPase (Homo sapiens, UniProt P55072, C522A) (P55072 2-806 C522A limits assumed): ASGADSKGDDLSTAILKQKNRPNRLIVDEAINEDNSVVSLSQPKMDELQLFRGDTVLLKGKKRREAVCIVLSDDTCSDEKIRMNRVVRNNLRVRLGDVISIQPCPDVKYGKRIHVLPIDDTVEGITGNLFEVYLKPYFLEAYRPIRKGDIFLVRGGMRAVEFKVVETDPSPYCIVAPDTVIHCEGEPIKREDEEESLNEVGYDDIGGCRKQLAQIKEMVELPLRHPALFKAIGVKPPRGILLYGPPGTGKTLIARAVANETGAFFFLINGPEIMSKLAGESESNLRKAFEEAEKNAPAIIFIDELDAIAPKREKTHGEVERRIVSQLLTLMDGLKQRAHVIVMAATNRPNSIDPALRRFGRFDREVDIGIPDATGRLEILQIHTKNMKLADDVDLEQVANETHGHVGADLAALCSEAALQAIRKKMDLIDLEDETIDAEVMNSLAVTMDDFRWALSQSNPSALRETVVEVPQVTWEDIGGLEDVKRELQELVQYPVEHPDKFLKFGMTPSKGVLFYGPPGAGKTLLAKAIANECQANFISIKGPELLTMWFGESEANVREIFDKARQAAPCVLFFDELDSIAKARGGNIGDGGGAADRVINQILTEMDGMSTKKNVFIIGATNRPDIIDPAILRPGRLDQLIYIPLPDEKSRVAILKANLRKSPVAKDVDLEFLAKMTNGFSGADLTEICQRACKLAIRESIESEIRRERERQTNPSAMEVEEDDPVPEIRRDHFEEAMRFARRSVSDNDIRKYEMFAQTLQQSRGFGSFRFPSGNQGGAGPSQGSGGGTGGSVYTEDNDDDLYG

Q: Which results are given for `CC(C)n1c(O)c(N=Nc2ccc(Cl)c(C(=O)O)c2)c2ccccc21`?
A: EC50 [1]: 3.7 µM (active); AC50 [2]: 35.7 µM (active)

Q: Which results are given for `C#CCOc1ccc2c(c1)c(C(C)=O)c(C)n2Cc1ccccc1`?
A: IC50 [3]: > 100 µM (active); CC50 [4]: > 40 µM (active)

Q: For `CC(C)c1oc(=O)cc2c1[C@@H](O)[C@H]1OC(=O)[C@@]3(C)CC[C@@H](O)[C@@]2(C)C13` (some centres not stated), which CC50 [5] is on record?
A: Its CC50 is 10.4 µM (active).

Q: And the IC50 (Vero)?
A: Its IC50 is 17.4 µM (active).

Q: And the IC50 [6]?
A: The IC50 was > 80 µM (inactive).

Q: What about the IC50 (cells) of the same compound?
A: The IC50 was 12.2 µM (active).

Q: For `Clc1ccc2[nH]cc(-c3nnnn3-c3ccccc3)c2c1`, which IC50 [7] is on record?
A: The IC50 was > 69.5 µM (not active).

Q: Which IC50 (Danio rerio) does the source give for `O=C1Nc2ccc(F)cc2/C1=C1/Nc2ccc(Br)cc2/C1=N\O` here?
A: The IC50 was 0.29 µM (not active).

Q: Which results are given for `CCOC(=O)/C(C#N)=C/c1c[nH]c2ccc(C#N)cc12`?
A: IC50 [8]: > 50 µM (not active); IC50 [9]: > 50 µM (not active)
